Source: publication PMC3486690 (Journal of inorganic biochemistry, 2012)

Biological target: T1, wild-type (WT) P450 BM3 heme domain (Priestia megaterium, UniProt P14779)
T1 sequence (P14779 1-464 limits assumed): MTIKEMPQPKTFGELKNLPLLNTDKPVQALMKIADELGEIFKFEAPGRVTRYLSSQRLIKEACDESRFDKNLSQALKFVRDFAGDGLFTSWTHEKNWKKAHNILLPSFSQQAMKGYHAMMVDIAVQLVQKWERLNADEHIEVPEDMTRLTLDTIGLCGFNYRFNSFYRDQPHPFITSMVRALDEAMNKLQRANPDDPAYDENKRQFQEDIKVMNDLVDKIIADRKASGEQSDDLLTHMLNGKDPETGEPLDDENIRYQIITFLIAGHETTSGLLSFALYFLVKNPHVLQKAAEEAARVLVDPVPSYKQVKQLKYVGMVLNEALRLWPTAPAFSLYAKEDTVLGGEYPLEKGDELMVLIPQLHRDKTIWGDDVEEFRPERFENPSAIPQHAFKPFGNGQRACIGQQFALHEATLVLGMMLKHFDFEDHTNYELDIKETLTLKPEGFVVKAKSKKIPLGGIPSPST
Assay: optical titration, type-I difference spectra
Format: binding

CCCCCCCCCCCC(=O)O [LA, lauric acid]
Kd: 280 ± 25 µM
